Measurements as given in ChEMBL document CHEMBL1138438, “Structural-activity relationship study of highly-functionalized imidazolines as potent inhibitors of nuclear transcription factor-kappaB mediated IL-6 production” (Bioorg Med Chem, 2009).

What was measured:
HeLa [1] = experiment: Cell cycle arrest in TNF-alpha-stimulated human HeLa cells transfected with NFkappaB-Luc assessed as accumulation at G2/G1 phase at 0.5 uM after 8 hrs by using propidium iodide staining by FACS analysis; assay type: functional
Blood = experiment: Antiinflammatory activity in human whole blood assessed as inhibition of IL-1-beta-stimulated IL6 production preincubated 2 hrs before IL1-beta challenge measured after 18 hrs by ELISA; assay type: functional, tissue-based
HeLa [2] = experiment: Effect on cell cycle arrest in TNF-alpha-stimulated human HeLa cells transfected with NFkappaB-Luc assessed as cell aggregate level at 0.05 uM after 8 hrs by using propidium iodide staining by FACS analysis; assay type: functional
HeLa [3] = experiment: Cell cycle arrest in TNF-alpha-stimulated human HeLa cells transfected with NFkappaB-Luc assessed as accumulation at diploid stage at 0.1 uM after 8 hrs by using propidium iodide staining by FACS analysis; assay type: functional
HeLa [4] = experiment: Cell cycle arrest in TNF-alpha-stimulated human HeLa cells transfected with NFkappaB-Luc assessed as accumulation at diploid G1 phase at 5 uM after 8 hrs by using propidium iodide staining by FACS analysis; assay type: functional
[5] = Cytotoxicity against human whole blood lymphocytes assessed as survival cell count in millions at 1 uM after 24 hrs by trypan blue staining-based hemocytometry
[6] = Cytotoxicity against human whole blood lymphocytes assessed as survival cell count in millions at 20 uM after 24 hrs by trypan blue staining-based hemocytometry
HeLa [7] = experiment: Cell cycle arrest in human HeLa cells transfected with NFkappaB-Luc assessed as accumulation at diploid G1 phase at 20 uM after 8 hrs by using propidium iodide staining by FACS analysis; assay type: functional
HeLa [8] = experiment: Cell cycle arrest in TNF-alpha-stimulated human HeLa cells transfected with NFkappaB-Luc assessed as accumulation at G2/G1 phase at 20 uM after 8 hrs by using propidium iodide staining by FACS analysis; assay type: functional
HeLa [9] = experiment: Cell cycle arrest in TNF-alpha-stimulated human HeLa cells transfected with NFkappaB-Luc assessed as accumulation at diploid G1 phase at 0.1 uM after 8 hrs by using propidium iodide staining by FACS analysis; assay type: functional
HeLa [10] = experiment: Cell cycle arrest in TNF-alpha-stimulated human HeLa cells transfected with NFkappaB-Luc assessed as accumulation at total S phase at 0.05 uM after 8 hrs by using propidium iodide staining by FACS analysis; assay type: functional
HeLa [11] = experiment: Effect on cell cycle arrest in TNF-alpha-stimulated human HeLa cells transfected with NFkappaB-Luc assessed as cell debris level at 20 uM after 8 hrs by using propidium iodide staining by FACS analysis; assay type: functional
HeLa [12] = experiment: Effect on cell cycle arrest in TNF-alpha-stimulated human HeLa cells transfected with NFkappaB-Luc assessed as cell debris level at 0.1 uM after 8 hrs by using propidium iodide staining by FACS analysis; assay type: functional
HeLa [13] = experiment: Effect on cell cycle arrest in TNF-alpha-stimulated human HeLa cells transfected with NFkappaB-Luc assessed as cell aggregate level at 20 uM after 8 hrs by using propidium iodide staining by FACS analysis; assay type: functional
HeLa [14] = experiment: Effect on cell cycle arrest in TNF-alpha-stimulated human HeLa cells transfected with NFkappaB-Luc assessed as cell aggregate level at 5 uM after 8 hrs by using propidium iodide staining by FACS analysis; assay type: functional
HeLa [15] = experiment: Cell cycle arrest in TNF-alpha-stimulated human HeLa cells transfected with NFkappaB-Luc assessed as accumulation at diploid G1 phase at 10 uM after 8 hrs by using propidium iodide staining by FACS analysis; assay type: functional
HeLa [16] = experiment: Cell cycle arrest in TNF-alpha-stimulated human HeLa cells transfected with NFkappaB-Luc assessed as accumulation at total S phase at 0.1 uM after 8 hrs by using propidium iodide staining by FACS analysis; assay type: functional
HeLa [17] = experiment: Cell cycle arrest in TNF-alpha-stimulated human HeLa cells transfected with NFkappaB-Luc assessed as accumulation at diploid G1 phase at 1 uM after 8 hrs by using propidium iodide staining by FACS analysis; assay type: functional
HeLa [18] = experiment: Cell cycle arrest in TNF-alpha-stimulated human HeLa cells transfected with NFkappaB-Luc assessed as accumulation at diploid S phase at 20 uM after 8 hrs by using propidium iodide staining by FACS analysis; assay type: functional
HeLa [19] = experiment: Cell cycle arrest in human HeLa cells transfected with NFkappaB-Luc assessed as accumulation at diploid stage at 20 uM after 8 hrs by using propidium iodide staining by FACS analysis; assay type: functional
HeLa [20] = experiment: Cell cycle arrest in TNF-alpha-stimulated human HeLa cells transfected with NFkappaB-Luc assessed as accumulation at diploid G2 phase at 0.05 uM after 8 hrs by using propidium iodide staining by FACS analysis; assay type: functional
HeLa [21] = experiment: Effect on cell cycle arrest in TNF-alpha-stimulated human HeLa cells transfected with NFkappaB-Luc assessed as cell aggregate level at 1 uM after 8 hrs by using propidium iodide staining by FACS analysis; assay type: functional
HeLa [22] = experiment: Cell cycle arrest in human HeLa cells transfected with NFkappaB-Luc assessed as accumulation at G2/G1 phase at 20 uM after 8 hrs by using propidium iodide staining by FACS analysis; assay type: functional
HeLa [23] = experiment: Cell cycle arrest in TNF-alpha-stimulated human HeLa cells transfected with NFkappaB-Luc assessed as accumulation at diploid stage at 20 uM after 8 hrs by using propidium iodide staining by FACS analysis; assay type: functional
HeLa [24] = experiment: Cell cycle arrest in TNF-alpha-stimulated human HeLa cells transfected with NFkappaB-Luc assessed as accumulation at total S phase at 0.5 uM after 8 hrs by using propidium iodide staining by FACS analysis; assay type: functional
HeLa [25] = experiment: Cell cycle arrest in TNF-alpha-stimulated human HeLa cells transfected with NFkappaB-Luc assessed as accumulation at diploid G2 phase at 20 uM after 8 hrs by using propidium iodide staining by FACS analysis; assay type: functional
HeLa [26] = experiment: Cell cycle arrest in TNF-alpha-stimulated human HeLa cells transfected with NFkappaB-Luc assessed as accumulation at diploid S phase at 1 uM after 8 hrs by using propidium iodide staining by FACS analysis; assay type: functional
HeLa [27] = experiment: Effect on cell cycle arrest in TNF-alpha-stimulated human HeLa cells transfected with NFkappaB-Luc assessed as cell debris level at 5 uM after 8 hrs by using propidium iodide staining by FACS analysis; assay type: functional
HeLa [28] = experiment: Effect on cell cycle arrest in TNF-alpha-stimulated human HeLa cells transfected with NFkappaB-Luc assessed as total background cell aggregate and debris level at 0.5 uM after 8 hrs by using propidium iodide staining by FACS analysis; assay type: functional
HeLa [29] = experiment: Effect on cell cycle arrest in TNF-alpha-stimulated human HeLa cells transfected with NFkappaB-Luc assessed as total background cell aggregate and debris level at 5 uM after 8 hrs by using propidium iodide staining by FACS analysis; assay type: functional
HeLa [30] = experiment: Effect on cell cycle arrest in human HeLa cells transfected with NFkappaB-Luc assessed as total background cell aggregate and debris level at 20 uM after 8 hrs by using propidium iodide staining by FACS analysis; assay type: functional
HeLa [31] = experiment: Cell cycle arrest in human HeLa cells transfected with NFkappaB-Luc assessed as accumulation at diploid S phase at 20 uM after 8 hrs by using propidium iodide staining by FACS analysis; assay type: functional

- IC50 (Blood; read-out: IC50): 800 nM
- IC50 (Blood; read-out: Log IC50 (converted)): 794 nM
Structure (SMILES): CCOC(=O)[C@]1(c2ccccc2)N=C(c2ccccc2)N(Cc2ccccc2)[C@@H]1c1ccccc1 (racemic)
- Activity (HeLa [1]): 1.91%
- Activity (Blood): Dose-dependent effect
- Activity (HeLa [2]): 0%
- Activity (HeLa [3]): 100%
- Activity (HeLa [4]): 66.37%
- Activity [5]: 0.8 mL⁻¹
- Activity [6]: 1.02 mL⁻¹
- Activity (HeLa [7]): 65.19%
- Activity (HeLa [8]): 1.9%
- Activity (HeLa [9]): 64.5%
- Activity (HeLa [10]): 22.8%
- Activity (HeLa [11]): 14.57%
- Activity (HeLa [12]): 2%
- Activity (HeLa [13]): 0%
- Activity (HeLa [14]): 0%
- Activity (HeLa [15]): 68.19%
- Activity (HeLa [16]): 21.47%
- Activity (HeLa [17]): 63.22%
- Activity (HeLa [18]): 19.29%
- Activity (HeLa [19]): 100%
- Activity (HeLa [20]): 12.9%
- Activity (HeLa [21]): 0%
- Activity (HeLa [22]): 1.9%
- Activity (HeLa [23]): 100%
- Activity (HeLa [24]): 22.52%
- Activity (HeLa [25]): 14.75%
- Activity (HeLa [26]): 22.9%
- Activity (HeLa [27]): 2.7%
- Activity (HeLa [28]): 1.29%
- Activity (HeLa [29]): 1.14%
- Activity (HeLa [30]): 3.86%
- Activity (HeLa [31]): 21.48%
